Columns and labels:
BV-2 microglia cells [1] = assay: MTT viability of BV-2 microglia cells; format: cell-based, murine
BV-2 microglia cells [2] = assay: IL-6 and TNFα determination (ELISA); format: cell-based, murine; conditions: BV-2 cells, increasing concentrations, 20 h, ELISA of cell-free supernatant, n = 6
Experimental: BV-2 cells were a kind gift from Prof. Alba Minelli and were grown in RPMI medium supplemented with 10% fetal bovine serum (FBS) and 1% penicillin-streptromycin solution (Life Technologies, Belgium). The cells were cultured in culture flasks (Greiner, Belgium) in an incubator set at 37 °C and 5% CO2. When confluent, cells were detached using a cell scraper and diluted 1:20 approximately every 4 days. Experiments were performed in serum-free DMEM without phenol red.
To investigate the microglia activating properties of the peptide, IL-6 and TNFα levels were determined in cell-free supernatants of BV-2 microglia cells after treatment. BV-2 cells (2 × 10^5 cells/well) were seeded in 24-well plates and treated with peptide for 20 h. ELISA was performed according to the supplier’s protocol (eBioscience, Vienna, Austria). Briefly, after incubation with biotinylated detection antibody, avidin-HRP conjugate and subsequently chromogenic tetramethylbenzidine (TMB) substrate were added. Absorbance was measured at 450 nm and 570 nm using the Multiskan Ascent 354 microplate reader (Thermofisher, Waltham, USA). Concentrations were determined using the standard curve generated using known concentrations of TNFα and IL-6.

[3] = Chemical and protease-inactivated homogenate stability; format: in vitro ADME, ICR-CD-1 mice; conditions: for Remaining amount of PapRIV: 1 hour at 37°C
Experimental: The metabolization rate of the peptide varied between different biological matrices such as serum, brain tissue, liver tissue, kidney tissue and faeces. […] Different metabolites of the peptide could be identified. To exclude the possibility of non-enzymatic degradation, the chemical and protease-inactivated homogenate (by pre-heating the homogenate for 5 min at 95 °C) stability of the peptide was determined. Except for kidney tissue, PapRIV remained stable in protease-inactivated homogenates, pointing an enzymatic degradation in serum, liver, brain and faeces (Supplementary Table S1). In protease-inactivated kidney homogenate, approximately 45% of peptide loss after 60 min can be explained by protein interaction with some kidney specific proteins. In serum, six different metabolites were formed. The MS-spectra of the different metabolites formed and the metabolic profiles in different tissues are given in supplementary information (Supplementary Figs. S6, S7). DLPFEH is the main metabolite which is formed in all matrices, metabolization of the native peptide to this metabolite is the main contributor of the low half-lives observed in kidney tissue and serum (Supplementary Fig. S5). Also in faeces, the matrix in which PapRIV is produced by gut bacteria, metabolization to DLPFEH occurred.
Supplementary method S3: Tissue homogenate preparation
Preparation of Krebs-Henseleit buffer (pH 7.4) (KH-buffer)
The powdered medium was dissolved in 900 mL water while stirring. To this solution, 0.3790 g CaCl2×2H2O and 2.098 g NaHCO3 was subsequently added while stirring. NaOH or HCl was used to adjust to pH 7.4. This solution was then further diluted to 1000 mL using ultrapure […]
Preparation of tissue homogenates
- The liver (n = 1), kidneys (n = 6), brains (n = 3), colons (n = 4) and faeces (0.196 g) of ICR-CD-1 mice were collected.
- After cleaning and rinsing the tissues using ice-cold KH buffer, the tissues were cut in little pieces and transferred into a 50 mL tube to which 36 mL ice-cold KH buffer was added.
- The tissues were then homogenized with at tissue homogenizer.
- After the larger particles were allowed to settle for about 30 minutes at 5°C, approximately 25 mL of the middle layer was transferred into a 50 mL Falcon tube using a plastic pipette.
- After shaking the homogenates, the homogenates were dispensed into 2 mL Eppendorf tubes, and stored at -35°C until use.
- The protein content of the homogenates were determined using the Pierce Modified Lowry […]
- Just before use, the homogenates were diluted to a protein concentration of 0.6 mg/mL (i.e.
300 µg / 500 µL) with KH buffer.
- Into a 1.5 ml Protein LoBind tube, 900 µl of serum/tissue extract (500 µl of homogenate/serum and 400 µl of KH buffer, pH 7.4) was transferred.
- After temperature-equilibration at 37°C for 15 min while shaking at 750 rpm, 100 µl of peptide solution (0.1 mg/mL) was added followed by continued incubation at 37°C (while shaking), with […] aliquots taken after 0, 5, 10, 30 and 60 minutes.
- The aliquots were immediately transferred into 500 µl Protein LoBind Eppendorf tubes containing 100 µl of 1% V/V trifluoroacetic acid solution in water, heated for 5 minutes at 95°C, and cooled for 30 minutes in an ice-bath.
- The samples were then centrifuged at 16,000 g for 5 minutes at 5°C.
- The supernatants was then analyzed by UPLC-UV/MS.
Supplementary table S1: Chemical and protease-inactivated homogenate stability of PapRIV […]
Matrix Remaining amount of PapRIV (%)

BV-2 cells [4] = assay: Morphological analysis (ameboid versus branched cells); format: cell-based, murine; conditions: 20 h, n = 6
Experimental: We investigated the morphology since microglia change their morphology from a branched structure to a more round, ameboid structure after activation. BV-2 cells were seeded in 1 × 10^4 cells/well in a 24-well plate (360 µL); this way direct cell–cell contacts, which have an influence on morphology, are avoided. Four hours post-seeding, cells were treated with 40 µL peptide, placebo (H2O), medium or positive control (LPS 1 µg/mL). For the assessment of the morphology, one picture in the center of each well (100 × magnification) was taken after twenty hours with an Olympus CKX53 phase-contrast microscope equipped with an XC30 CCD camera (Olympus NV, Antwerp, Belgium). The number of branched and ameboid cells was counted with the cell counter plugin of ImageJ.

BV-2 cells [5] = assay: qPCR of IL-6 mRNA; format: cell-based, murine; conditions: 10 µM, n = 6, Mann–Whitney U test
Experimental: To confirm the observed ELISA results at mRNA level, a qPCR experiment was performed. After incubation of the BV-2 cells with PapRIV or controls, cells were lysed in RLT buffer (Qiagen, Hilden, Germany) supplemented with 1% β-mercaptoethanol. The lysate was stored at − 80 °C until RNA extraction. RNA was extracted using the RNeasy Mini Kit (Qiagen, Hilden, Germany). DNAse steps were included in the protocol to remove possible DNA contamination. RNA purity and concentration were assessed using spectrophotometry (NanoDrop), while RNA quality was evaluated using capillary electrophoresis (Fragment Analyzer). After extraction, the RNA was immediately converted to cDNA which was stored at − 20 °C until qPCR analysis. Ppia and Rer were chosen as suitable control genes based on the GeNorm and Normfinder algorithms[79],[80]. Used primers are given in Table 5. qPCR cycling was performed using a LightCycler 480 (Roche), with Cq values being calculated using the second derivative threshold method.

With “SDLPFEH [PapRIV, heptapeptide (SDLPFEH) quorum sensing peptide originating from the Bacillus cereus group; synthetic, purchased from GL Biochem]” the “viability of BV-2 microglia cells” value (BV-2 microglia cells [1]; 25 µM treatment, non-significant decrease) was 94.8%, the “toxic effects towards BV-2 microglia cells” value (BV-2 microglia cells [1]; MTT, up to 25 µM) was “no significant toxic effects” and the IL-6 production (BV-2 microglia cells [2]) was “induced”. For the same substance, the TNFα production (BV-2 microglia cells [2]) was “induced”, the “Remaining amount of PapRIV” value ([3]; Inactivated brain homogenate (pre-heated 5 min at 95 °C)) was 101.0% and the “Remaining amount of PapRIV” value ([3]; Inactivated colon homogenate (pre-heated 5 min at 95 °C)) was 99.2%. The “Remaining amount of PapRIV” value ([3]; Inactivated faeces homogenate (pre-heated 5 min at 95 °C)) was 101.4%, the “Remaining amount of PapRIV” value ([3]; Inactivated kidney homogenate (pre-heated 5 min at 95 °C)) was 53.8% and the “Remaining amount of PapRIV” value ([3]; Inactivated liver homogenate (pre-heated 5 min at 95 °C)) was 101.6%. For the same substance, the “Remaining amount of PapRIV” value ([3]; Inactivated serum (pre-heated 5 min at 95 °C)) was 99.0%, the “Remaining amount of PapRIV” value ([3]; KH-buffer (Krebs-Henseleit, pH 7.4), chemical stability) was 99.8% and the peptide loss ([3]; protease-inactivated kidney homogenate, after 60 min, explained by protein interaction) was “approximately 45%”. The “fraction of ameboid cells” value (BV-2 cells [4]) was “increased” and the “IL-6 mRNA expression” value (BV-2 cells [5]) was “increased”.

— publication PMC8140105 (Scientific Reports, 2021)
